# Results taken from PMC5072635 (PLoS ONE, 2016).
# “And” between values parts separate entries of the source, which are not always exact repeats. Identical values can stand only once. Like-named read-outs stand apart in the source and are kept apart here.
# Legend:
# [1] = tested on: IFN-γ production; experiment: ELISA of TCR-induced IFN-γ production by APBTs; assay type: cell-based, human
# Method: (§1) The cells were then stimulated with plate-bound 2 μg/ml of anti-CD3 (Biolegend) for 24 hours. Protein concentrations of IL-2, IFN-γ, IL-10, and TNF-α in the media supernatants were measured by standard TMB ELISA.
# (§2) Cells were plated on 2 μg/ml anti-CD3 coated plates for 24 hours. Extracellular cytokine production for (A) IFN-γ, (B) IL-2, (C) IL-10, or (D) TNFα was measured by ELISA in 3 independent experiments with different human donors.
# [2] = tested on: total AKT microclusters; experiment: TIRF microscopy of AKT microcluster formation in APBTs; assay type: cell-based, human
# Method: (§3) APBTs were stimulated in the presence of 0.1% ethanol control or 10 μg/ml GML with plate-bound anti-CD3 on glass coverslips, fixed with 4% paraformaldehyde, permeabilized with 0.25% Triton-X, and stained as described below. To detect microcluster formation of TCR signaling proteins, antibodies specific for LAT pY226 (BD Pharmingen), PLC-γ pY783 (Cell Signaling, and total AKT (Cell signaling) were incubated with fixed and permeabilized cells overnight for 4°C. Subsequently, conjugated secondary antibodies Dylight Goat anti-rabbit IgG and DyLight 568 Goat anti-rabbit IgG (Biolegend) as well as Alexa Fluor 488 goat anti-mouse IgG1 (Thermo Fisher) were incubated with the cells at room temperature for 2 hours. All images were captured by the Leica AM TIRF MC system using 100x magnification oil immersion objective lens at room temperature at the University of Iowa Central Microscopy Research Facility.
# (§4) TIRF microscopy images were processed and analyzed using ImageJ. Quantification of membrane clustering was done by measuring mean pixel intensity in the […] of cells for 60 cells total from at least 3 independent experiments. Similar quantification methods have been used in other published reports.
# (§5) (A). […] Pixel intensities of median axis of each cell in images obtained in (A) were quantified and averaged using ImageJ. […]
# [3] = target: T1, pig serum albumin (PSA) (Sus scrofa, UniProt P08835); experiment: Isothermal titration calorimetry with pig serum albumin; assay type: binding
# T1 construct: purchased Sigma Aldrich
# Method: (§6) Supplementary file pone.0165083.s001.pdf: S1 Fig ITC curves of GML with various mammalian albumins. 150μM of GML was injected incrementally into the sample chamber containing 5μM of mammalian albumins. […] (PDF) Click here for additional data file.
# [4] = tested on: IL-2 production; experiment: ELISA of TCR-induced IL-2 production by APBTs; assay type: cell-based, human
# Method: as §1
# (§7) Cells were plated on 2 μg/ml anti-CD3 coated plates for 24 hours. Extracellular cytokine production for (A) IFN-γ, (B) IL-2, (C) IL-10, or (D) TNFα was measured by ELISA in 3 independent experiments with different human donors. To statistically confirm that GML is suppressing cytokine production without serum, Student t’s test was done by comparing EtOH treated groups with GML treated groups under the same serum free environment, indicated by the black bars, with # denoting p<0.05.
# [5] = cited from earlier work
# [6] = tested on: LAT pY226 microclusters; experiment: TIRF microscopy of LAT microcluster formation in APBTs; assay type: cell-based, human
# Method: as §3, §4, §5
# [7] = tested on: HSA
# Method: (§8) All samples were degassed, and ITC was performed at room temperature as previously described using MicroCal VP-ITC calorimeter. […] The data were analyzed using a single-site binding model provided in the ITC analysis software package. […] The values for ΔH, Kd and stoichiometry averaged ± standard deviation. […] The values for stoichiometry and binding affinity were derived from the ITC experiments.
# While the presence of other ligands would increase the proportion of free floating GML unbound to albumin, we assumed there were no other albumin ligands present in the system to simplify our calculations.
# (PDF) Click here for additional data file.
# [8] = target: T2, bovine serum albumin (BSA) (Bos taurus, UniProt P02769); experiment: Isothermal titration calorimetry with bovine serum albumin; assay type: binding
# T2 construct: purchased Sigma Aldrich
# Method: as §6
# [9] = target: T3, rabbit serum albumin (RSA) (Oryctolagus cuniculus, UniProt P49065); experiment: Isothermal titration calorimetry with rabbit serum albumin; assay type: binding
# T3 construct: purchased Sigma Aldrich
# Method: as §6
# [10] = target: human serum albumin (HSA) (Homo sapiens, UniProt P02768); experiment: Isothermal titration calorimetry with human serum albumin; conditions: for ΔH: room temperature, pH 7.4
# Method: as §8
# 150 μM of ethanol solubilized GML was placed in the syringe and injected into the sample chamber twenty one times with 180 seconds interval between injections.
# [11] = tested on: TNF-α production; experiment: ELISA of TCR-induced TNF-α production by APBTs; assay type: cell-based, human
# Method: as §1, §7
# [12] = tested on: AKT phosphorylation at threonine 308 and serine 473; experiment: TCR-induced AKT phosphorylation by immunoblotting in APBTs; assay type: cell-based, human
# Method: The cells were then incubated on ice with 2 μg/ml anti-CD3 for 30 minutes. […] Cells were then lysed with 2X sample buffer, heated to 95°C, and sonicated.
# Cell lysates were separated by polyacrylamide gel electrophoresis and transferred to PVDF. The membranes were blocked in 0.5X SEA BLOCK blocking buffer diluted in PBS. Primary antibodies were incubated overnight at 4°C. Secondary antibodies were incubated with the membrane for 30 minutes at room temperature and then imaged using Licor Odyssey (Lincoln, NE, USA). At least four independent replicates with different human donors were performed for each experiment. Immunoblot band intensity was quantified using Odyssey’s v3.0 software with the intensity of the phospho-specific antibody normalized to the intensity of the GAPDH antibody. To minimize variability between human donors, band intensities were further normalized to maximal band intensity of ethanol vehicle control. The following antibodies were used for immunoblotting: AKT pThr 308 (Cell Signaling), AKT pS473 (Invitrogen), GAPDH (Meridian Life Sciences), and IRDye 800CW or IRDye680-conjugated secondary antibodies (Thermo Scientific).
# Cells were stimulated by crosslinking 2 μg/ml of anti-CD3 for various times. Phosphorylation of AKT at threonine 308 and serine 473 were assessed by immunoblotting.
# [13] = tested on: PLC-γ1 pY783 microclusters; experiment: TIRF microscopy of PLC-γ1 microcluster formation in APBTs; assay type: cell-based, human
# Method: as §3, §4, §5
# [14] = tested on: IL-10 production; experiment: ELISA of TCR-induced IL-10 production by APBTs; assay type: cell-based, human
# Method: as §1, §2
# [15] = target: T4, mouse serum albumin (MSA) (Mus musculus, UniProt P07724); experiment: Isothermal titration calorimetry with mouse serum albumin; assay type: binding
# T4 construct: purchased Sigma Aldrich
# Method: as §6
# [16] = GML doses 10 μg/ml or greater, absence of serum albumin, anti-CD3 24 hours
# [17] = ITC, single-site model, 5 μM albumin, 150 μM ligand
# [18] = 10 μg/ml GML, serum free media, significant at 5 and 15 minutes post stimulation
# human serum albumin (HSA), sequence (P02768 25-609): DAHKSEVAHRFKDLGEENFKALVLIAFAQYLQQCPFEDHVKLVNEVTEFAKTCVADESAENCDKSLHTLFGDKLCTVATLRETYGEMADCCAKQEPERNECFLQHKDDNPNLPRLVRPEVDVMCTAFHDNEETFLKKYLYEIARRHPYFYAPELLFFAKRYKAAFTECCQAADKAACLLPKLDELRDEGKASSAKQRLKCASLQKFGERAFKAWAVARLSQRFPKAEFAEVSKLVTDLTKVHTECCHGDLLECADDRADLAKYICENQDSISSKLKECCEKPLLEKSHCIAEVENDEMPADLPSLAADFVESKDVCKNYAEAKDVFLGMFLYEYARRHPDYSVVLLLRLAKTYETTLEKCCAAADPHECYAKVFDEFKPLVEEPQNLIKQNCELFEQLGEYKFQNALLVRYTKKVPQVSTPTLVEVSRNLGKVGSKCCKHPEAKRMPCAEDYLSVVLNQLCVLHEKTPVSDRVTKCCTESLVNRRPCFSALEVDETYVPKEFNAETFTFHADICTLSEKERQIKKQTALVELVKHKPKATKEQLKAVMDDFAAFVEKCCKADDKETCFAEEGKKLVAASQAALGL
# T2 sequence (P02769 25-607): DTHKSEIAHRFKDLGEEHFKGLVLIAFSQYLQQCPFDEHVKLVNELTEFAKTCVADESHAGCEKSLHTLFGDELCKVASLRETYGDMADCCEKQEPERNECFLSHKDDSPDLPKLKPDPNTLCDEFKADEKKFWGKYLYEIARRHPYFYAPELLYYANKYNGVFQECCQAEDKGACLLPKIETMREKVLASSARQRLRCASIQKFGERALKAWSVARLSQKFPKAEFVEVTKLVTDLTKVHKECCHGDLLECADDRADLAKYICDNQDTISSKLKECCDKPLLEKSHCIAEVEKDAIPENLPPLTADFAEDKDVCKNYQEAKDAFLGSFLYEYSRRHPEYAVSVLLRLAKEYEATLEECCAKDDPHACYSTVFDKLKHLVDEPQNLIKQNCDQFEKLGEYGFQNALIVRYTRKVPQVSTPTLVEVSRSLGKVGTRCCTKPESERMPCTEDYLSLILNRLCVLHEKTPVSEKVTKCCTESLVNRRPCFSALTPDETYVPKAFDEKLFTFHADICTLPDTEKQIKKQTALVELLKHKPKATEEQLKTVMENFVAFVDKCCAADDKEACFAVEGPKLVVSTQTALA
# T4 sequence (P07724 25-608): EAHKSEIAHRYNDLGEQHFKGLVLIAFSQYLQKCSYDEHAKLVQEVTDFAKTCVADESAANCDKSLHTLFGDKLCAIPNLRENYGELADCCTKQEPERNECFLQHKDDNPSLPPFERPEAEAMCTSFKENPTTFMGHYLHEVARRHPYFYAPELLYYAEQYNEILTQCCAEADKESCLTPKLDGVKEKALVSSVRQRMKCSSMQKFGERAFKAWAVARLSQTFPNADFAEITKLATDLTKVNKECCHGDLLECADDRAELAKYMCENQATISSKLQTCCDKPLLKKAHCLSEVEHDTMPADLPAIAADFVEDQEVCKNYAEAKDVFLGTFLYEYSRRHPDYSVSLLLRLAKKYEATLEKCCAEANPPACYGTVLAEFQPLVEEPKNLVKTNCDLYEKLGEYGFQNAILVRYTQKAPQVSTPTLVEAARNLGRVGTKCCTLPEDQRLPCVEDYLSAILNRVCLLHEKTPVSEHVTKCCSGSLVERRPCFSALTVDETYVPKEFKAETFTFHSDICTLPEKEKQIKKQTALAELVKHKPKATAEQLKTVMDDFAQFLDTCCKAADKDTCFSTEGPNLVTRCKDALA
# T3 sequence (P49065 25-608): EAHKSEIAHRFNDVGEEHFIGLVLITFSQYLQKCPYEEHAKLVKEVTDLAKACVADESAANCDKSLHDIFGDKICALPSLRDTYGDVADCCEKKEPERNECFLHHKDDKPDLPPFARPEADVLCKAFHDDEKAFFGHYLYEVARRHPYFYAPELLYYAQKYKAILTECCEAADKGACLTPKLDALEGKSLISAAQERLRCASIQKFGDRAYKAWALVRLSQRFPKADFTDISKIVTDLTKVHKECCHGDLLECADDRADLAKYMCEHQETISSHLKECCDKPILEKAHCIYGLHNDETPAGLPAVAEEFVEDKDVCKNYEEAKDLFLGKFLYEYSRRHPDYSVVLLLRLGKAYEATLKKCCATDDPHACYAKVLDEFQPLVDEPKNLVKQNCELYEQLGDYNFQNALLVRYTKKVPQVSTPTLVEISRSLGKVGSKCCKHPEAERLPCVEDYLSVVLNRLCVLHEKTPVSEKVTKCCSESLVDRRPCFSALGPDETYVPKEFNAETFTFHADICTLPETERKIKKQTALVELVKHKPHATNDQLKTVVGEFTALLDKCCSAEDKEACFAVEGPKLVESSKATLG
# T1 sequence (P08835 25-607): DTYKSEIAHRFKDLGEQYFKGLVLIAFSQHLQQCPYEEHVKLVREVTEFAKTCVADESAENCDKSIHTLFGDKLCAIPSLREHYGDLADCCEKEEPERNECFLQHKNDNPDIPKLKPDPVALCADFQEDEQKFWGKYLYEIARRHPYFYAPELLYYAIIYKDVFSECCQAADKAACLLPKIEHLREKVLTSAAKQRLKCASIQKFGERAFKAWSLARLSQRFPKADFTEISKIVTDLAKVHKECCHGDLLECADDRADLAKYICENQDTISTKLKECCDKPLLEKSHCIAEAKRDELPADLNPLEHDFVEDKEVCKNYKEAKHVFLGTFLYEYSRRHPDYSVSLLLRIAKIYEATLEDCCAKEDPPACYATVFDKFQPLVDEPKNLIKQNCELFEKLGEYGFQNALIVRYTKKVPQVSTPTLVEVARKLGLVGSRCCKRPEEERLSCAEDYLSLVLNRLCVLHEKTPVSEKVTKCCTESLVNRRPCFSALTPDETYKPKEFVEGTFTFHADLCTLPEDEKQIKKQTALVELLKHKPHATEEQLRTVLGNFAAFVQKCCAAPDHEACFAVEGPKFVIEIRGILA
smiles,measurement,setting,value
"CCCCCCCCCCCC(=O)OCC(O)CO (stereo not shown) [GML, Glycerol monolaurate]",IFN-γ production vs GML treatment alone,"[1]; 1% or 0.2% HSA, 10 μg/ml GML",significant restoration
same,IFN-γ production vs GML treatment alone,"[1]; 2% HSA, both GML doses (10 and 20 μg/ml)",significantly restored
same,IFNγ production vs ethanol control,[1]; [16],significantly reduced
same,AKT clustering,[2]; 10 μg/ml GML alone,inhibits
same,AKT clustering in GML treated cells,[2]; 10 μg/ml GML with 1% HSA,relieves this inhibition
same,Kd,[3],4.5 ± 1.6 µM
same,ΔH,"[3]; ITC, single-site model, PSA",-2.0 ± 0.63 kcal/mol
same,IL-2 production vs GML in serum free media,"[4]; 10 μg/ml GML, 2% and 1% HSA",significantly increased
same,IL-2 production vs GML in serum free conditions,"[4]; 20 μg/ml GML, all HSA doses",did not have significantly increased
same,IL-2 production vs ethanol control,[4]; [16],significantly reduced
same,aqueous solubility cap,"[5]; aqueous, under 37°C, stated as a fact, no reference printed for it",100 µg/mL
same,solubility in gel formulations,"[5]; topical GML in gel formulations ref [3],[19]",up to 50 mg/ml
same,LAT microcluster formation in GML treated cells,"[6]; 10 μg/ml GML in 1% HSA, to levels similar to ethanol and HSA controls",significantly increased
same,LAT clustering at the membrane,"[6]; 10 μg/ml GML, serum free media",drastically decreased
same,GML molecules bound to HSA,"[7]; 10 and 20 μg/ml GML, all HSA concentrations, no other ligands assumed",> 90%
same,GML bound to albumin,"[7]; low-albumin sites (urine, vaginal secretions, CSF etc.), GML doses less than 20 μg/ml",mostly bound
same,albumin bound to GML,"[7]; lymphatic fluid, albumin 40% to 90% of the serum concentration",> 99%
same,GML molecules bound to albumin,"[7]; plasma albumin 35 to 50 g/L, concentrations where GML is soluble, Kd 1.4 μM",> 99%
same,concentration of GML-HSA complexes relative to free GML molecules,"[7]; skin wound exudate albumin 10 to 30 g/L, GML doses between 500 to 5000 μg/ml",within one order of magnitude
same,GML molecules bound to HSA,"[7]; skin wound exudate albumin 10 to 30 g/L, GML doses greater than 5000 μg/ml",< 2%
same,GML bound to HSA,"[7]; skin wound exudate albumin 10 to 30 g/L, GML doses less than 500 μg/ml",> 90%
same,Kd,[8],2.2 ± 1.1 µM
same,ΔH,"[8]; ITC, single-site model, BSA",-4.5 ± 0.77 kcal/mol
same,Kd,[9],5.4 ± 1.3 µM
same,ΔH,"[9]; ITC, single-site model, RSA",-4.5 ± 0.61 kcal/mol
same,ΔH,[10]; [17],-3.0 ± 1.1 kcal/mol
same,Kd,"[10]; Kd, ITC, single-site model, 5 μM albumin, 150 μM ligand",~1.4 µM and 1.4 µM
same,TNF-α production vs GML in serum free media,"[11]; 10 and 20 μg/ml GML, all concentrations of HSA",significantly increased
same,TNFα production vs ethanol control,[11]; [16],significantly reduced
same,AKT T308 phosphorylation vs GML alone,"[12]; 10 μg/ml GML in 1% HSA, 5 and 15 minutes post stimulation",significantly increased
same,AKT S473 phosphorylation vs GML alone,"[12]; 10 μg/ml GML in 1% HSA, 15 minutes post stimulation",significantly increased
same,"phosphorylation of both AKT residues (T308, S473) post stimulation vs GML treated cells","[12]; 10 μg/ml GML in 1% HSA, below levels in ethanol control",modest increase
same,AKT S473 phosphorylation vs ethanol control,[12]; [18],drastically suppressed
same,AKT T308 phosphorylation vs ethanol control,[12]; [18],drastically suppressed
same,PLC-γ1 clustering,[13]; 10 μg/ml GML alone,inhibits
same,PLC-γ1 clustering in GML treated cells,[13]; 10 μg/ml GML with 1% HSA,relieves this inhibition
same,IL-10 production vs control APBTs,"[14]; 10 μg/ml GML, all doses of HSA",significantly increased
same,IL-10 production vs GML in serum free media,"[14]; 20 μg/ml GML, all concentrations of HSA tested",did not restore
same,IL-10 production vs ethanol control,[14]; [16],significantly reduced
same,Kd,[15],6.3 ± 2.7 µM
same,ΔH,"[15]; ITC, single-site model, MSA",-4.9 ± 1.1 kcal/mol
"OCC(O)CO [Glycerol, glycerol]",Kd,[10],> 50 µM
same,binding reaction with HSA,"[10]; ITC, 5 μM HSA, 150 μM glycerol",did not have measurable binding reaction
"CCCCCCCCCCCC(=O)O [LA, Lauric acid]",Kd,[10]; [17],4.9 ± 1.1 µM
same,ΔH,[10]; [17],-24 kcal/mol and -24 ± 0.63 kcal/mol
same,n (stoichiometry),"[10]; ITC, single-site model, ligand:HSA",1.1 ± 0.4
